Measured values reported in US20190127692A1, “Production Method For Hepatocyte Lineage Cells, Hepatocyte Lineage Cell Or Culture Product Obtained By The Production Method, And Hepatocyte Differentiation-Inducing Medium” (National University Corporation Chiba University, priority 2017, published 2019).

How the values were obtained:
Format in all cases: cell-based, human
[1] = system: AFP; test: AFP expression by real-time quantitative PCR (Example 4); conditions: 1 mM in HSM, 7 days culture, control ReproFF
Description: (§1) 201B7 cells, ReproFF, HSM, calcium lactate, and sodium lactate were prepared in the same manner as in Example 2.
(§2) The 201B7 cells were seeded to a 6-well plate coated with Matrigel, and when 100% confluence had been reached, the medium was exchanged with 1 mM calcium lactate (Ca-lactate), 1 mM sodium lactate (Na-lactate), or 1 mM lactic acid (Lactate), followed by culture for 7 days. Control cells were cultured in ReproFF.
(§3) RNA was extracted and analyzed for the expression levels of AFP and albumin by real-time quantitative PCR.

[2] = system: 201B7 cells; test: Optical microscope observation 1: precipitates and cell survival after 7-day culture (Example 3)
Description: In the above-mentioned Examples, precipitates were formed in culture dishes in some cases. The formation of the precipitates inhibits contact between cells and medium to adversely affect long-term survival. Therefore, conditions under which the precipitates were not formed were investigated.
201B7 cells, ReproFF, HSM, and calcium lactate were prepared in the same manner as in Example 2.
5×10^4 201B7 cells were seeded to a 96-well plate coated with Matrigel. The next day, to HSM, calcium lactate was added at 3 μM, 10 μM, 30 μM, 100 μM, 300 μM, 1 mM, 3 mM, 10 mM, 30 mM, or 100 mM, followed by culture for 7 days.

[3] = system: albumin; test: Albumin expression by real-time quantitative PCR (Example 4); conditions: 1 mM in HSM, 7 days culture, control ReproFF
Description: as §1, §2, §3

[4] = system: 201B7 cells; test: Optical microscope observation 2: state of culture cells (Example 5); conditions: 1 mM, 7 days culture
Description: 201B7 cells, HSM, calcium lactate, sodium lactate, and lactic acid were prepared in the same manner as in Example 2.
The 201B7 cells were seeded to a 6-well plate coated with Matrigel, and when 100% confluence had been reached, the medium was exchanged with 1 mM calcium lactate, 1 mM sodium lactate, or 1 mM lactic acid, followed by culture for 7 days.

[5] = system: AFP; test: Immunostaining with anti-AFP antibody (Example 6); conditions: HSM supplemented, 7 days culture
Description: 201B7 cells, HSM, ReproFF, and calcium lactate were prepared in the same manner as in Example 2.
The 201B7 cells were seeded to an 8-well chamber slide and cultured. After 100% confluence had been reached, 1 mM calcium lactate was added to HSM, followed by culture for 7 days. As a control, the cells were cultured in ReproFF for 7 days.
The cells were fixed with 4% paraformaldehyde, and washed with phosphate buffered saline (PBS). The cells were incubated at 4° C. for 30 minutes in 100% methanol having added thereto 0.3% hydrogen peroxide solution to inactivate intrinsic peroxidase. The cells were washed three times with PBS. The cells were incubated at 4° C. for 30 minutes in PBS supplemented with 2% fetal bovine serum (wash buffer).
A mouse anti-human alpha-fetoprotein (AFP) antibody (manufactured by Takara Bio Inc., product code: M225) was diluted 1,000-fold with the wash buffer and added, followed by incubation at 4° C. overnight. The resultant was washed three times with PBS. An anti-mouse IgG antibody (manufactured by GE Healthcare) labeled with Horse-radish peroxidase was diluted 1,000-fold with the wash buffer, followed by incubation at 4° C. for 3 hours. The resultant was washed three times with PBS. Color development was performed with 3,3-diaminobenzidine (DAKO, K3467), and nuclei were stained with hematoxylin, followed by mounting.

[6] = in HSM, 7 days culture, optical microscope

| Structure (SMILES) | expression of AFP as compared to the undifferentiated state [1] | cell survival ([2]; 1 mM in HSM, 7 days culture) | concentration at which precipitates were found [2, 6] | concentration at which precipitates were not found [2, 6] | expression of albumin as compared to the undifferentiated state [3] | state of cells as compared to cells cultured with calcium lactate [4] | cell survival in HSM supplemented with lactic acid (general remark) ([2]; iPS cells, 7 days) | AFP expression (immunostaining) as compared to cells cultured in ReproFF [5] | optical microscope observation, FIG. 3A ([2]; 3 mM, 7 days culture) |
| --- | --- | --- | --- | --- | --- | --- | --- | --- | --- |
| CC(O)C(=O)[O-].CC(O)C(=O)[O-].[Ca+2] (stereo not drawn) [calcium lactate] | upregulated | survived | ≥ 3000 µM | ≤ 1000 µM | upregulated | – | – | – | – |
| CC(O)C(=O)O (stereo not drawn) [lactic acid] | – | – | – | – | – | collapsing tendency | survived even after 7 days | upregulated | – |
| CC(O)C(=O)[O-].[Na+] (stereo not drawn) [sodium lactate] | upregulated | – | – | – | upregulated | collapsing tendency | – | – | precipitates |
